Experimental data as given in patent US8778964B2, “Hydroxy-substituted imidazo[1,2-a]-pyridinecarboxamides and their use” (Bayer Pharma Aktiengesellschaft, priority 2012, dated 2014).
Structures can show the parent of a compound that is named as a salt.

Tested on: recombinant guanylate cyclase reporter cell line
Assay: Action on recombinant guanylate cyclase reporter cell line (MEC)
Format: cell-based
Conditions: in some cases mean values obtained from individual determinations
Procedure: B-2. Action on Recombinant Guanylate Cyclase Reporter Cell Line
The cellular action of the compounds according to the invention is determined on a recombinant guanylate cyclase reporter cell line, as described in F. Wunder et al., Anal. Biochem. 339, 104-112 (2005).
Representative values (MEC=minimal effective concentration) for the compounds according to the invention are shown in the following table (in some cases as mean values obtained from individual determinations): […]

**Q.** With Cc1nc2c(OCc3c(F)cccc3F)cccn2c1C(=O)NC[C@@H]1CCCC[C@H]1O (racemic) [Example 27, (rac)-trans-8-[(2,6-difluorobenzyl)oxy]-N-[(2-hydroxycyclohexyl)methyl]-2-methylimidazo[1,2-a]pyridine-3-carboxamide] as the molecule, how does the minimal effective concentration read?
**A.** 0.3 µM

**Q.** With Cc1nc2c(OCc3c(F)cccc3F)cccn2c1C(=O)NCCC(C)O (racemic) [Example 28, (rac)-8-[(2,6-difluorobenzyl)oxy]-N-(3-hydroxybutyl)-2-methylimidazo[1,2-a]pyridine-3-carboxamide] as the molecule, how does the minimal effective concentration read?
**A.** 0.65 µM

**Q.** How did the minimal effective concentration turn out when CCC(O)CNC(=O)c1c(C)nc2c(OCc3c(F)cccc3F)cccn12 (racemic) [Example 30, (rac)-8-[(2,6-difluorobenzyl)oxy]-N-(2-hydroxybutyl)-2-methylimidazo[1,2-a]pyridine-3-carboxamide] was run?
**A.** 0.3 µM

**Q.** How did the minimal effective concentration turn out when CCC(CO)NC(=O)c1c(C)nc2c(OCC3CCCCC3)cccn12 (racemic) [Example 69, (rac)-8-(cyclohexylmethoxy)-N-(1-hydroxybutan-2-yl)-2-methylimidazo[1,2-a]pyridine-3-carboxamide formate] was run?
**A.** 0.1 µM

**Q.** How did the minimal effective concentration turn out when C=CCC(CO)NC(=O)c1c(C)nc2c(OCC3CCCCC3)cccn12 (racemic) [Example 70, (rac)-8-(cyclohexylmethoxy)-N-(1-hydroxypent-4-en-2-yl)-2-methylimidazo[1,2-a]pyridine-3-carboxamide] was run?
**A.** 0.1 µM

**Q.** For Cc1nc2c(OCC3CCCCC3)cccn2c1C(=O)N[C@H]1CCC[C@@H]1O (racemic) [Example 71, (rac)-8-(cyclohexylmethoxy)-N-[trans-2-hydroxycyclopentyl]-2-methylimidazo[1,2-a]-pyridine-3-carboxamide], which minimal effective concentration is on record?
**A.** 0.1 µM

**Q.** Which minimal effective concentration does the source give for Cc1nc2c(OCC3CCCCC3)cccn2c1C(=O)N[C@@H]1CCCC[C@H]1O (racemic) [Example 78, (rac)-8-(cyclohexylmethoxy)-N-[(trans)-2-hydroxycyclohexyl]-2-methylimidazo[1,2-a]-pyridine-3-carboxamide] here?
**A.** 0.3 µM

**Q.** For Cc1nc2c(OCc3c(F)cccc3F)cccn2c1C(=O)NC(CO)CC(F)(F)F (racemic) [Example 100, rac-8-[(2,6-Difluorobenzyl)oxy]-2-methyl-N-(4,4,4-trifluoro-1-hydroxybutan-2-yl)imidazo[1,2-a]-pyridine-3-carboxamide trifluoroacetate], which minimal effective concentration is on record?
**A.** 0.03 µM

**Q.** Cc1nc2c(OCc3c(F)cccc3F)cccn2c1C(=O)NC(CO)CCC(F)(F)F (racemic) [Example 101, rac-8-[(2,6-difluorobenzyl)oxy]-2-methyl-N-(5,5,5-trifluoro-1-hydroxypentan-2-yl)-imidazo[1,2-a]pyridine-3-carboxamide trifluoroacetate] was tested. Which minimal effective concentration did it give?
**A.** 0.1 µM

**Q.** With Cc1nc2c(OCc3c(F)cccc3F)cccn2c1C(=O)NC(CO)c1ccc(F)cc1 (racemic) [Example 103, rac-8-[(2,6-difluorobenzyl)oxy]-N-[1-(4-fluorophenyl)-2-hydroxyethyl]-2-methylimidazo-[1,2-a]pyridine-3-carboxamide trifluoroacetate] as the molecule, how does the minimal effective concentration read?
**A.** 0.1 µM

**Q.** Which minimal effective concentration does the source give for Cc1nc2c(OCc3c(F)cccc3F)cccn2c1C(=O)N[C@@H](CO)c1ccccc1 (racemic) [Example 104, rac-8-[(2,6-difluorobenzyl)oxy]-N-[(1R)-2-hydroxy-1-phenylethyl]-2-methylimidazo[1,2-a]pyridine-3-carboxamide trifluoroacetate] here?
**A.** 0.1 µM

**Q.** Cc1nc2c(OCc3c(F)cccc3F)cccn2c1C(=O)NCC(O)C(F)(F)F (racemic) [Example 106, rac-8-[(2,6-difluorobenzyl)oxy]-2-methyl-N-(3,3,3-trifluoro-2-hydroxypropyl)imidazo[1,2-a]pyridine-3-carboxamide trifluoroacetate] was tested. Which minimal effective concentration did it give?
**A.** 0.3 µM

**Q.** For Cc1nc2c(OCc3c(F)cccc3F)cccn2c1C(=O)NC(CO)C(F)(F)F (racemic) [Example 110, rac-8-[(2,6-Difluorobenzyl)oxy]-2-methyl-N-(1,1,1-trifluoro-3-hydroxypropan-2-yl)imidazo[1,2-a]pyridine-3-carboxamide], which minimal effective concentration is on record?
**A.** 0.3 µM

**Q.** With Cc1nc2c(OCc3c(F)cccc3F)cccn2c1C(=O)NC(CO)CC(F)(F)F (racemic) [Example 113, rac-8-[(2,6-Difluorobenzyl)oxy]-2-methyl-N-(4,4,4-trifluoro-1-hydroxybutan-2-yl)imidazo[1,2-a]-pyridine-3-carboxamide] as the molecule, how does the minimal effective concentration read?
**A.** 0.03 µM

**Q.** For Cc1nc2c(OCc3c(F)cccc3F)cccn2c1C(=O)NC(CO)CCCC(F)(F)F (racemic) [Example 114, rac-8-[(2,6-difluorobenzyl)oxy]-2-methyl-N(6,6,6-trifluoro-1-hydroxyhexan-2-yl)imidazo[1,2-a]pyridine-3-carboxamide], which minimal effective concentration is on record?
**A.** 0.03 µM

**Q.** Cc1nc2c(OCc3c(F)cccc3F)cccn2c1C(=O)NC(CO)c1ccccn1 (racemic) [Example 119, rac-8-[(2,6-difluorobenzyl)oxy]-N-[2-hydroxy-1-(pyridin-2-yl)ethyl]-2-methylimidazo[1,2-a]-pyridine-3-carboxamide] was tested. Which minimal effective concentration did it give?
**A.** 0.3 µM

**Q.** Which minimal effective concentration does the source give for Cc1nc2c(OCc3c(F)cccc3F)cccn2c1C(=O)NC(CO)c1ccc(S(C)(=O)=O)cc1 (racemic) [Example 120, rac-8-[(2,6-difluorobenzyl)oxy]-N-{2-hydroxy-1-[4-(methylsulphonyl)phenyl]ethyl}-2-methylimidazo[1,2-a]pyridine-3-carboxamide] here?
**A.** 1 µM

**Q.** For Cc1nc2c(OCc3c(F)cccc3F)cccn2c1C(=O)NC(CO)c1cccnc1 (racemic) [Example 124, rac-8-[(2,6-Difluorobenzyl)oxy]-N-[2-hydroxy-1-(pyridin-3-yl)ethyl]-2-methylimidazo[1,2-a]-pyridine-3-carboxamide], which minimal effective concentration is on record?
**A.** 0.3 µM

**Q.** For Cc1nc2c(OCc3c(F)cccc3F)cccn2c1C(=O)NC(CC(F)(F)F)C(C)(C)O (racemic) [Example 148, rac-8-[(2,6-Difluorobenzyl)oxy]-2-methyl-N-(1,1,1-trifluoro-4-hydroxy-4-methylpentan-3-yl)-imidazo[1,2-a]pyridine-3-carboxamide], which minimal effective concentration is on record?
**A.** 0.03 µM

**Q.** Which minimal effective concentration does the source give for Cc1nc2c(OCc3c(F)cccc3F)cccn2c1C(=O)NC(CCC(F)(F)F)C(C)(C)O (racemic) [Example 149, rac-8-[(2,6-difluorobenzyl)oxy]-2-methyl-N-(6,6,6-trifluoro-2-hydroxy-2-methylhexan-3-yl)imidazo[1,2-a]pyridine-3-carboxamide] here?
**A.** 0.1 µM

**Q.** Which minimal effective concentration does the source give for Cc1nc2c(OCc3c(F)cccc3F)cccn2c1C(=O)NC(CCCC(F)(F)F)C(C)(C)O (racemic) [Example 150, rac-8-[(2,6-difluorobenzyl)oxy]-2-methyl-N-(7,7,7-trifluoro-2-hydroxy-2-methylheptan-3-yl)imidazo[1,2-a]pyridine-3-carboxamide] here?
**A.** 0.03 µM

**Q.** With Cc1nc2c(OCc3c(F)cccc3F)cccn2c1C(=O)NC(c1ccc(Cl)cc1)C(C)(C)O (racemic) [Example 151, rac-N-[1-(4-chlorophenyl)-2-hydroxy-2-methylpropyl]-8-[(2,6-difluorobenzyl)oxy]-2-methylimidazo[1,2-a]pyridine-3-carboxamide] as the molecule, how does the minimal effective concentration read?
**A.** 0.3 µM

**Q.** For Cc1nc2c(OCc3c(F)cccc3F)cccn2c1C(=O)NC(c1ccc(F)cc1)C(C)(C)O (racemic) [Example 152, rac-8-[(2,6-difluorobenzyl)oxy]-N-[1-(4-fluorophenyl)-2-hydroxy-2-methylpropyl]-2-methylimidazo[1,2-a]pyridine-3-carboxamide], which minimal effective concentration is on record?
**A.** 0.3 µM

**Q.** For CCOCC(CO)NC(=O)c1c(C)nc2c(OCc3c(F)cccc3F)cccn12 (racemic) [Example 160, rac-8-[(2,6-Difluorobenzyl)oxy]-N-(1-ethoxy-3-hydroxypropan-2-yl)-2-methylimidazo[1,2-a]-pyridine-3-carboxamide], which minimal effective concentration is on record?
**A.** 0.3 µM

**Q.** Which minimal effective concentration does the source give for CCCOCC(CO)NC(=O)c1c(C)nc2c(OCc3c(F)cccc3F)cccn12 (racemic) [Example 162, rac-8-[(2,6-Difluorobenzyl)oxy]-N-(1-hydroxy-3-propoxypropan-2-yl)-2-methylimidazo[1,2-a]-pyridine-3-carboxamide] here?
**A.** 0.3 µM

**Q.** Which minimal effective concentration does the source give for Cc1nc2c(OCc3c(F)cccc3F)cccn2c1C(=O)NC(CO)COCC(C)C (racemic) [Example 163, rac-8-[(2,6-Difluorobenzyl)oxy]-N-(1-hydroxy-3-isobutoxypropan-2-yl)-2-methylimidazo[1,2-a]-pyridine-3-carboxamide] here?
**A.** 1 µM

**Q.** With Cc1cc(OCCC(C(F)(F)F)C(F)(F)F)c2nc(C)c(C(=O)NC(CCCC(F)(F)F)C(C)(C)O)n2c1 (racemic) [Example 170, rac-2,6-Dimethyl-N-(7,7,7-trifluoro-2-hydroxy-2-methylheptan-3-yl)-8-[4,4,4-trifluoro-3-(trifluoromethyl)butoxy]imidazo[1,2-a]pyridine-3-carboxamide] as the molecule, how does the minimal effective concentration read?
**A.** 3 µM

**Q.** With CCC(O)CNC(=O)c1c(C)nc2c(OCCC(C(F)(F)F)C(F)(F)F)cc(C)cn12 (racemic) [Example 174, rac-N-(2-hydroxybutyl)-2,6-dimethyl-8-[4,4,4-trifluoro-3-(trifluoromethyl)butoxy]imidazo[1,2-a]pyridine-3-carboxamide] as the molecule, how does the minimal effective concentration read?
**A.** 3 µM

**Q.** For Cc1cc(OCCC(C(F)(F)F)C(F)(F)F)c2nc(C)c(C(=O)NCC(O)c3ccc(Cl)cc3)n2c1 (racemic) [Example 175, rac-N-[2-(4-chlorophenyl)-2-hydroxyethyl]-2,6-dimethyl-8-[4,4,4-trifluoro-3-(trifluoromethyl)butoxy]imidazo[1,2-a]pyridine-3-carboxamide], which minimal effective concentration is on record?
**A.** 3 µM

Same assay, conditions: in some cases mean values obtained from individual determinations, trifluoroacetate

**Q.** How did the minimal effective concentration turn out when Cc1nc2c(OCc3c(F)cccc3F)cccn2c1C(=O)NC(CO)CCCC(F)(F)F (racemic) [Example 102, rac-8-[(2,6-difluorobenzyl)oxy]-2-methyl-N-(6,6,6-trifluoro-1-hydroxyhexan-2-yl)-imidazo[1,2-a]pyridine-3-carboxamide trifluoroacetate] was run?
**A.** 0.1 µM
